Consider 21 compounds from ChEMBL document CHEMBL4725334, “Discovery of novel integrase-LEDGF/p75 allosteric inhibitors based on a benzene scaffold” (Bioorg Med Chem, 2020).

pEC50: −log10 of the molar value.

Data set [1] can be described thus: Metabolic stability in human liver microsomes assessed as parent compound remaining at 0.5 uM incubated for 30 mins by LC-MS/MS analysis. Format: ADME, Microsome. Particulars: read-out: Stabilty.
Data set [2] can be described thus: Cytotoxicity against human MT4 cells assessed as reduction in cell viability measured after 4 days by MTT assay. Format: cell-based. The note with it: time 4 day.
Data set [3] can be described thus: Binding affinity to LEDGF/p75 binding pocket of integrase in HIV-1 NL432 infected in human MT4 cells assessed as allosteric inhibition of IN-LEDGF/p75 interaction by measuring inhibition of virus-induced cytopathicity measured after 4 days by MTT assay. Type of data set: cell-based. The note with it: Human immunodeficiency virus 1, NL432, MT4, 96 h.
Data set [4] is described as follows: AUC in Sprague-Dawley rat at 0.5 mg/kg, iv measured for 24 hrs by LC-MS/MS analysis. Type of data set: ADME, organism-based. More on the design: dose 0.5 mg/kg, time 24 hrs. The note with it: in vivo.
The nature of data set [5]: Total clearance in Sprague-Dawley rat at 0.5 mg/kg, iv and 1 mg/kg, po administered as cassette dosing measured for 24 hrs by LC-MS/MS analysis. Type of data set: ADME, organism-based. The note with it: in vivo.
Data set [6] is described as follows: Half-life in Sprague-Dawley rat at 0.5 mg/kg, iv and 1 mg/kg, po administered as cassette dosing measured for 24 hrs by LC-MS/MS analysis. Particulars: in vivo. Type of data set: ADME, organism-based.
Data set [7] is described as follows: Metabolic stability in rat liver microsomes assessed as parent compound remaining at 0.5 uM incubated for 30 mins by LC-MS/MS analysi. Format: ADME, Microsome. Particulars: read-out: Stabilty.
The nature of data set [8]: Oral bioavailability in Sprague-Dawley rat 1 mg/kg administered as cassette dosing measured for 24 hrs by LC-MS/MS analysis. Type of data set: ADME, organism-based. The note with it: in vivo.

Take `Cc1ccc(-c2c(C)c(-c3ccc4c(c3C)CCCO4)c(C(OC(C)(C)C)C(=O)O)c(C)c2NS(C)(=O)=O)cc1C` (centres undefined): the figures for the remaining at 0.5 h, 0.5 µM in data set [1] and in data set [7] were 59% and 61%, respectively. In addition, the CC50 at 96 h in data set [2] is 24000 nM. The negative logarithm of the EC50 (pEC50) in data set [3] is 8.41. In data set [4], the AUC at 24 h is 1190 ng·h/mL. In data set [5], this compound gave a clearance of 6.99 mL/min/kg. Moreover, the half-life in data set [6] was 3.1 h. Moreover, the bioavailability in data set [8] was determined as 36%.

As to `Cc1ccc(-c2c(C)c(-c3ccc(Cl)c(F)c3)c(C(OC(C)(C)C)C(=O)O)c(C)c2NS(C)(=O)=O)cc1C` (centres undefined), the CC50 at 96 h in data set [2] worked out at 22000 nM. Moreover, in data set [3], the pEC50 was 7.59.

For `Cc1ccc(-c2c(C)c(-c3ccc(C)c(C)c3)c(C(OC(C)(C)C)C(=O)O)c(C)c2NC(=O)c2ccccc2)cc1C` (centres undefined), the CC50 at 96 h in data set [2] was found to be 9100 nM. For the same compound, the negative logarithm of the EC50 (pEC50) in data set [3] is 7.29.

Turning to `Cc1ccc(-c2c(C)c(-c3ccc4c(c3)N(C)CCO4)c(C(OC(C)(C)C)C(=O)O)c(C)c2NS(C)(=O)=O)cc1C` (centres undefined), the half-maximal cytotoxic concentration (CC50) at 96 h in data set [2] is 31000 nM. The pEC50 in data set [3] is 7.51.

Turning to `Cc1ccc(-c2c(C)c(-c3ccc(Cl)cc3)c(C(OC(C)(C)C)C(=O)O)c(C)c2NS(C)(=O)=O)cc1C` (centres undefined), in data set [2], the 50% cytotoxic concentration (CC50) at 96 h is 26000 nM. Also, the pEC50 in data set [3] was 7.96.

For `Cc1ccc(-c2c(C)c(-c3ccccc3)c(C(OC(C)(C)C)C(=O)O)c(C)c2NS(C)(=O)=O)cc1C` (centres undefined), the CC50 at 96 h in data set [2] is more than 50000 nM. Besides, the pEC50 in data set [3] is 7.47.

For `CC(=O)Nc1c(C)c(C(OC(C)(C)C)C(=O)O)c(-c2ccc(C)c(C)c2)c(C)c1-c1ccc(C)c(C)c1` (centres undefined), the CC50 at 96 h in data set [2] was found to be 19000 nM. In data set [3], the pEC50 was 7.72.

Take `Cc1ccc(-c2c(C)c(-c3ccc(C)c(C)c3)c(C(OC(C)(C)C)C(=O)O)c(C)c2NS(=O)(=O)c2ccccc2)cc1C` (centres undefined): the CC50 at 96 h in data set [2] came to 11000 nM. For the same compound, the negative logarithm of the EC50 (pEC50) in data set [3] is 7.48.

Consider `Cc1ccc(-c2c(C)c(-c3ccc4c(c3)CCCO4)c(C(OC(C)(C)C)C(=O)O)c(C)c2NS(C)(=O)=O)cc1C` (centres undefined), for which the CC50 at 96 h in data set [2] came to 28000 nM. Further, in data set [3], the pEC50 was 7.66.

Consider `Cc1ccc(-c2c(C)c(-c3ccc(C)c(C)c3)c(C(OC(C)(C)C)C(=O)O)c(C)c2NC(=O)Nc2ccccc2)cc1C` (centres undefined), for which the CC50 at 96 h in data set [2] amounted to 8000 nM. Further, in data set [3], the pEC50 was 7.54.

As to `CNc1c(C)c(C(OC(C)(C)C)C(=O)O)c(-c2ccc(C)c(C)c2)c(C)c1-c1ccc(C)c(C)c1` (centres undefined), the CC50 at 96 h in data set [2] amounted to 8800 nM. Further, the pEC50 in data set [3] is 7.51.

As for `CCC(=O)Nc1c(C)c(C(OC(C)(C)C)C(=O)O)c(-c2ccc(C)c(C)c2)c(C)c1-c1ccc(C)c(C)c1` (centres undefined), the CC50 at 96 h in data set [2] was 15000 nM. The pEC50 in data set [3] was 7.72.

`Cc1ccc(-c2c(C)c(-c3ccc(C)c(C)c3)c(C(OC(C)(C)C)C(=O)O)c(C)c2NS(C)(=O)=O)cc1C` (centres undefined): in data set [2], the CC50 at 96 h worked out at 15000 nM. The pEC50 in data set [3] was 7.96.

In the case of `Cc1ccc(-c2c(C)c(-c3ccc(C)c(C)c3)c(C(OC(C)(C)C)C(=O)O)c(C)c2NCc2ccccc2)cc1C` (centres undefined), the CC50 at 96 h in data set [2] is 4000 nM. Further, in data set [3], the pEC50 is 6.32.

Regarding `Cc1ccc(-c2c(C)c(-c3ccc(C)c(C)c3)c(C(OC(C)(C)C)C(=O)O)c(C)c2NS(=O)(=O)C2CC2)cc1C` (centres undefined), the CC50 at 96 h in data set [2] is 11000 nM. Also, the pEC50 in data set [3] was 7.54.

On to `Cc1ccc(-c2c(C)c(-c3ccc(C)c(C)c3)c(C(OC(C)(C)C)C(=O)O)c(C)c2N)cc1C` (centres undefined), for which the CC50 at 96 h in data set [2] turned out to be 12000 nM. The negative-log EC50 (pEC50) in data set [3] was 7.57.

For `CNC(=O)Nc1c(C)c(C(OC(C)(C)C)C(=O)O)c(-c2ccc(C)c(C)c2)c(C)c1-c1ccc(C)c(C)c1` (centres undefined), the CC50 at 96 h in data set [2] came out at 20000 nM. Besides, the pEC50 in data set [3] is 7.11.

Consider `Cc1nc2ccccc2c(-c2ccc3c4c(ccnc24)CCO3)c1[C@H](OC(C)(C)C)C(=O)O` [BI-224436], for which the remaining at 0.5 h, 0.5 µM worked out at 98% in data set [1] and 100% in data set [7]. The CC50 at 96 h in data set [2] is more than 50000 nM. Also, the pEC50 in data set [3] was 7.25. Moreover, the area under the curve (AUC) at 24 h in data set [4] stood at 7680 ng·h/mL. In data set [5], the clearance stood at 1.09 mL/min/kg. For the same compound, the half-life in data set [6] was 4.2 h. The compound also returned a bioavailability in data set [8] of 64%.

For `Cc1ccc(-c2c(C)c(-c3ccc4c(c3)NCCO4)c(C(OC(C)(C)C)C(=O)O)c(C)c2NS(C)(=O)=O)cc1C` (centres undefined), the CC50 at 96 h in data set [2] worked out at 42000 nM. The pEC50 in data set [3] is 6.48.

For `Cc1ccc(-c2c(C)c(-c3ccc4c(c3)CCO4)c(C(OC(C)(C)C)C(=O)O)c(C)c2NS(C)(=O)=O)cc1C` (centres undefined), in data set [2], the 50% cytotoxic concentration (CC50) at 96 h is 38000 nM. Moreover, the pEC50 in data set [3] is 7.46.

As for `CCNC(=O)Nc1c(C)c(C(OC(C)(C)C)C(=O)O)c(-c2ccc(C)c(C)c2)c(C)c1-c1ccc(C)c(C)c1` (centres undefined), the CC50 at 96 h in data set [2] was found to be 15000 nM. The pEC50 in data set [3] was 7.43.
